IC50 data for 21 compounds are collected here from patent publication US20250034159A1, “INHIBITORS OF EPIDERMAL GROWTH FACTOR RECEPTOR” (ORIC Pharmaceuticals, Inc., priority 2021, published 2025).

pIC50: −log10 of the molar value. Like-named read-outs stand apart in the source and are kept apart here.

In one assay the test system is Ba/F3_EGFR WT cells. Nature of the assay: Biological Activity Assay D: BaF3 cell proliferation assay, EGFR wild-type (BaF3 WT). Format: cell-based. To be noted: Ba/F3 EGFR, read-out: BaF3 WT IC50.
The test system of a further assay is BaF3_EGFR d19/CS cells. Nature of the assay: Biological Activity Assay D: BaF3 cell proliferation assay, EGFR exon 19 deletion/C797S (BaF3 d19/CS). Format: cell-based. The settings on record: Ba/F3 EGFR, read-out: BaF3 d19/CS IC50.
In assay [1] the target is recombinant human EGFR exon 19 deletion/C797S double mutant protein (Homo sapiens (Human), UniProt P00533, C797S/DEL746-750). Nature of the assay: Biological Activity Assay C: biochemical assay against EGFR exon 19 deletion/C797S protein (EGFR d19/CS). The procedure, abridged:
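Compounds were tested as 16-point serial dilutions (final DMSO 2.5%) with a Phosphosens peptide sensor/ATP working solution (40 uM/4 mM). The signal was read kinetically over 90 cycles at 120 s intervals. IC50s came from 4-parameter fits of per-well slopes.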

The test system of the next assay is BaF3_EGFR LR/CS cells. Nature of the assay: Biological Activity Assay D: BaF3 cell proliferation assay, EGFR L858R/C797S mutant (BaF3 LR/CS). Format: cell-based. The settings on record: Ba/F3 EGFR, read-out: BaF3 LR/CS IC50.
Setting [2] is: Ba/F3_EGFR WT cells, ~72 hours, CellTiter-Glo.
Where [3] appears, read: BaF3_EGFR d19/CS cells, ~72 hours, CellTiter-Glo.
Where [4] appears, read: BaF3_EGFR LR/CS cells, ~72 hours, CellTiter-Glo.

Chain of recombinant human EGFR exon 19 deletion/C797S double mutant protein (P00533 other isoform, or with tags, fused parts or gaps C797S/del 1-668/del 746-750 limits assumed): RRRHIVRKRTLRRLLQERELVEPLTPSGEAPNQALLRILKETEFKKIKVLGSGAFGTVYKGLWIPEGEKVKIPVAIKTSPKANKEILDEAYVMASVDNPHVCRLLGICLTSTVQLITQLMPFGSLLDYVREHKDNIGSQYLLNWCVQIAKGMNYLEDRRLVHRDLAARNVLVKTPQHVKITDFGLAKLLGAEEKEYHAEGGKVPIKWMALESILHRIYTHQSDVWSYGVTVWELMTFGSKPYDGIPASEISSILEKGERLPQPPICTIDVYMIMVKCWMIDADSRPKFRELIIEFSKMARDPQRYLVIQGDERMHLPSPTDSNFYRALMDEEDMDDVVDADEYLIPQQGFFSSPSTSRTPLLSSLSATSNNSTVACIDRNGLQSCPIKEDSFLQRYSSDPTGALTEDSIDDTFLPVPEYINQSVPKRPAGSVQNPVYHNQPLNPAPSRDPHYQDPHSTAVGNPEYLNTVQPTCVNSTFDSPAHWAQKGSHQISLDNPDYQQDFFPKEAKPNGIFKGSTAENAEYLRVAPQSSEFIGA

As for `Cc1cccnc1-c1cc2c(-c3cn(C4CS(=O)(=O)C4)nc3-c3ccc(F)cc3)ncnc2o1` [Example 241, 3-{3-(4-fluorophenyl)-4-[6-(3-methylpyridin-2-yl)furo[2,3-d]pyrimidin-4-yl]-1H-pyrazol-1-yl}-1λ6-thietane-1,1-dione], the pIC50 was 5.82 in the assay on Ba/F3_EGFR WT cells (setting [2]), 6.88 in the assay on BaF3_EGFR d19/CS cells (setting [3]), 8.92 in assay [1] and 6.72 with BaF3_EGFR LR/CS cells (setting [4]).

Consider `Cc1nn(C)cc1-c1cc2c(-c3cn(C4CS(=O)(=O)C4)nc3-c3ccc(F)cc3)ncnc2o1` [Example 242, 3-{4-[6-(1,3-dimethyl-1H-pyrazol-4-yl)furo[2,3-d]pyrimidin-4-yl]-3-(4-fluorophenyl)-1H-pyrazol-1-yl}-16-thietane-1,1-dione], for which the pIC50 in the assay on Ba/F3_EGFR WT cells (setting [2]) was 6.27; in the assay on BaF3_EGFR d19/CS cells (setting [3]) it was 7.97; in assay [1] it was 9.74; in the assay on BaF3_EGFR LR/CS cells (setting [4]), 8.08.

For `Cc1cc(-c2cc3c(-c4cn(C5CS(=O)(=O)C5)nc4-c4ccc(F)cc4)ncnc3o2)n(C)n1` [Example 243, 3-{4-[6-(1,3-dimethyl-1H-pyrazol-5-yl)furo[2,3-d]pyrimidin-4-yl]-3-(4-fluorophenyl)-1H-pyrazol-1-yl}-16-thietane-1,1-dione], the pIC50 with Ba/F3_EGFR WT cells (setting [2]) was 5.92; in the assay with BaF3_EGFR d19/CS cells (setting [3]), 7.06; in assay [1] it was 9.43; in the assay on BaF3_EGFR LR/CS cells (setting [4]) it was 7.03.

`Cn1cc(-c2cc3c(-c4cn(C5CS(=O)(=O)C5)nc4-c4ccc(F)cc4)ncnc3o2)nn1` [Example 244, 3-{3-(4-fluorophenyl)-4-[6-(1-methyl-1H-1,2,3-triazol-4-yl)furo[2,3-d]pyrimidin-4-yl]-1H-pyrazol-1-yl}-16-thietane-1,1-dione]: the pIC50 in the assay with Ba/F3_EGFR WT cells (setting [2]) was 5.98; with BaF3_EGFR d19/CS cells (setting [3]), 7.02; in assay [1] it was 9.26; in the assay on BaF3_EGFR LR/CS cells (setting [4]), 7.04.

For `Cc1ccccc1-c1cc2c(-c3cn(C4CS(=O)(=O)C4)nc3-c3ccc(F)cc3)ncnc2o1` [Example 245, 3-{3-(4-fluorophenyl)-4-[6-(2-methylphenyl)furo[2,3-d]pyrimidin-4-yl]-1H-pyrazol-1-yl}-16-thietane-1,1-dione], the pIC50 in the assay with Ba/F3_EGFR WT cells (setting [2]) is 5.49; in the assay with BaF3_EGFR d19/CS cells (setting [3]), 7.16; in assay [1] it was 9.51; in the assay with BaF3_EGFR LR/CS cells (setting [4]), 7.09.

`O=S1(=O)CC(n2cc(-c3ncnc4oc(-c5nccs5)cc34)c(-c3ccc(F)cc3)n2)C1` [Example 248, 3-{3-(4-fluorophenyl)-4-[6-(1,3-thiazol-2-yl)furo[2,3-d]pyrimidin-4-yl]-1H-pyrazol-1-yl}-16-thietane-1,1-dione]: the pIC50 in the assay on Ba/F3_EGFR WT cells (setting [2]) is 5.59; in the assay on BaF3_EGFR d19/CS cells (setting [3]) it was 7.03; in assay [1], 9.38; in the assay on BaF3_EGFR LR/CS cells (setting [4]) it was 7.00.

As to `Cc1ncccc1-c1cc2c(-c3cn(C4CS(=O)(=O)C4)nc3-c3ccc(F)cc3)ncnc2o1` [Example 249, 3-{3-(4-fluorophenyl)-4-[6-(2-methylpyridin-3-yl)furo[2,3-d]pyrimidin-4-yl]-1H-pyrazol-1-yl}-1λ6-thietane-1,1-dione], the pIC50 with Ba/F3_EGFR WT cells (setting [2]) is 5.35; in the assay on BaF3_EGFR d19/CS cells (setting [3]), 6.99; in assay [1], 9.60; in the assay on BaF3_EGFR LR/CS cells (setting [4]), 6.99.

As for `Cn1cc(-c2cc3c(-c4cn(C5CS(=O)(=O)C5)nc4-c4ccc(F)cc4)ncnc3o2)cn1` [Example 250, 3-{3-(4-fluorophenyl)-4-[6-(1-methyl-1H-pyrazol-4-yl)furo[2,3-d]pyrimidin-4-yl]-1H-pyrazol-1-yl}-16-thietane-1,1-dione], the pIC50 in the assay on Ba/F3_EGFR WT cells (setting [2]) was 6.16; in the assay on BaF3_EGFR d19/CS cells (setting [3]), 8.03; in assay [1], 10.30; with BaF3_EGFR LR/CS cells (setting [4]) it was 8.45.

As to `Cc1nn(C)cc1-c1cc2c(-c3cn(CC(C)(C)O)nc3-c3ccc(F)cc3)ncnc2o1` [Example 251, 1-{4-[6-(1,3-dimethyl-1H-pyrazol-4-yl)furo[2,3-d]pyrimidin-4-yl]-3-(4-fluorophenyl)-1H-pyrazol-1-yl}-2-methylpropan-2-ol], the pIC50 with Ba/F3_EGFR WT cells (setting [2]) is 6.13; with BaF3_EGFR d19/CS cells (setting [3]), 7.89; in assay [1] it was 9.70; in the assay on BaF3_EGFR LR/CS cells (setting [4]), 8.09.

For `Cc1nn(C)c(C)c1-c1cc2c(-c3cn(CC(C)(C)O)nc3-c3ccc(F)cc3)ncnc2o1` [Example 252, 1-{3-(4-fluorophenyl)-4-[6-(1,3,5-trimethyl-1H-pyrazol-4-yl)furo[2,3-d]pyrimidin-4-yl]-1H-pyrazol-1-yl}-2-methylpropan-2-ol], the pIC50 in the assay with Ba/F3_EGFR WT cells (setting [2]) is 6.20; in the assay with BaF3_EGFR d19/CS cells (setting [3]), 7.66; in assay [1] it was 10.05; in the assay on BaF3_EGFR LR/CS cells (setting [4]), 8.05.

As to `Cc1cccc(-c2cc3c(-c4cn(C5CS(=O)(=O)C5)nc4-c4ccc(F)cc4)ncnc3o2)n1` [Example 253, 3-{3-(4-fluorophenyl)-4-[6-(6-methylpyridin-2-yl)furo[2,3-d]pyrimidin-4-yl]-1H-pyrazol-1-yl}-16-thietane-1,1-dione], the pIC50 in the assay with Ba/F3_EGFR WT cells (72 h) was 5.11; with BaF3_EGFR d19/CS cells (72 h) it was 7.06; in assay [1], 9.70; with BaF3_EGFR LR/CS cells (72 h) it was 7.29.

On to `Cn1cnc(-c2cc3c(-c4cn(CC(C)(C)O)nc4-c4ccc(F)cc4)ncnc3o2)c1` [Example 254, 1-{3-(4-fluorophenyl)-4-[6-(1-methyl-1H-imidazol-4-yl)furo[2,3-d]pyrimidin-4-yl]-1H-pyrazol-1-yl}-2-methylpropan-2-ol], for which the pIC50 with Ba/F3_EGFR WT cells (setting [2]) was 6.35; in the assay on BaF3_EGFR d19/CS cells (setting [3]), 8.30; in assay [1] it was 9.96; in the assay on BaF3_EGFR LR/CS cells (setting [4]), 8.52.

Regarding `CC(C)(O)Cn1cc(-c2ncnc3oc(-c4cccnc4)cc23)c(-c2ccc(F)cc2)n1` [Example 255, 1-{3-(4-fluorophenyl)-4-[6-(pyridin-3-yl)furo[2,3-d]pyrimidin-4-yl]-1H-pyrazol-1-yl}-2-methylpropan-2-ol], the pIC50 was 5.77 with Ba/F3_EGFR WT cells (setting [2]), 7.49 in the assay on BaF3_EGFR d19/CS cells (setting [3]), 9.33 in assay [1] and 7.29 with BaF3_EGFR LR/CS cells (setting [4]).

On to `Cn1cc(-c2cc3c(-c4cn([C@H]5C[C@@H](S(C)(=O)=O)C5)nc4-c4ccc(F)cc4)ncnc3o2)cn1` [Example 256, 4-{3-(4-fluorophenyl)-1-[(1s,3s)-3-(methanesulfonyl)cyclobutyl]-1H-pyrazol-4-yl}-6-(1-methyl-1H-pyrazol-4-yl)furo[2,3-d]pyrimidine], for which the pIC50 with Ba/F3_EGFR WT cells (setting [2]) was 6.39; with BaF3_EGFR d19/CS cells (setting [3]), 7.95; in assay [1], 9.72; in the assay on BaF3_EGFR LR/CS cells (setting [4]) it was 8.28.

As to `CC(C)(O)Cn1cc(-c2ncnc3oc(-c4ccccn4)cc23)c(-c2ccc(F)cc2)n1` [Example 257, 1-{3-(4-fluorophenyl)-4-[6-(pyridin-2-yl)furo[2,3-d]pyrimidin-4-yl]-1H-pyrazol-1-yl}-2-methylpropan-2-ol], the pIC50 with Ba/F3_EGFR WT cells (setting [2]) was 5.99; in the assay on BaF3_EGFR d19/CS cells (setting [3]) it was 7.68; in assay [1], 9.70; in the assay on BaF3_EGFR LR/CS cells (setting [4]), 7.74.

Turning to `Cc1c(-c2cc3c(-c4cn(CC(C)(C)O)nc4-c4ccc(F)cc4)ncnc3o2)cnn1C` [Example 258, 1-{4-[6-(1,5-dimethyl-1H-pyrazol-4-yl)furo[2,3-d]pyrimidin-4-yl]-3-(4-fluorophenyl)-1H-pyrazol-1-yl}-2-methylpropan-2-ol], the pIC50 was 6.01 in the assay on Ba/F3_EGFR WT cells (setting [2]), 7.73 in the assay with BaF3_EGFR d19/CS cells (setting [3]), 9.80 in assay [1] and 7.90 in the assay on BaF3_EGFR LR/CS cells (setting [4]).

For the compound `Cn1cnc(-c2cc3c(-c4cn([C@H]5C[C@@H](S(C)(=O)=O)C5)nc4-c4ccc(F)cc4)ncnc3o2)c1` [Example 259, 4-{3-(4-fluorophenyl)-1-[(1s,3s)-3-(methanesulfonyl)cyclobutyl]-1H-pyrazol-4-yl}-6-(1-methyl-1H-imidazol-4-yl)furo[2,3-d]pyrimidine], the pIC50 in the assay on Ba/F3_EGFR WT cells (setting [2]) is 6.30; in the assay on BaF3_EGFR d19/CS cells (setting [3]), 7.84; in assay [1], 10.00; in the assay on BaF3_EGFR LR/CS cells (setting [4]), 8.35.

For `CC(=O)N1C=C(c2cc3c(-c4cn(CC(C)(C)O)nc4-c4ccc(F)cc4)ncnc3o2)CCC1` [Example 260, 1-[5-{4-[3-(4-fluorophenyl)-1-(2-hydroxy-2-methylpropyl)-1H-pyrazol-4-yl]furo[2,3-d]pyrimidin-6-yl}-3,4-dihydropyridin-1 (2H)-yl]ethan-1-one], the pIC50 was 5.72 in the assay on Ba/F3_EGFR WT cells (setting [2]), 7.48 with BaF3_EGFR d19/CS cells (setting [3]), 9.46 in assay [1] and 7.77 in the assay with BaF3_EGFR LR/CS cells (setting [4]).

With `Cn1cc(-c2cc3c(-c4cn(CC(C)(C)O)nc4-c4ccc(F)cc4)ncnc3o2)cn1` [Example 261, 1-{3-(4-fluorophenyl)-4-[6-(1-methyl-1H-pyrazol-4-yl)furo[2,3-d]pyrimidin-4-yl]-1H-pyrazol-1-yl}-2-methylpropan-2-ol], the pIC50 is 6.26 in the assay with Ba/F3_EGFR WT cells (setting [2]), 8.00 in the assay on BaF3_EGFR d19/CS cells (setting [3]), 9.69 in assay [1] and 8.34 in the assay with BaF3_EGFR LR/CS cells (setting [4]).

Turning to `CC(C)(O)Cn1cc(-c2ncnc3oc(-c4ccccc4Cl)cc23)c(-c2ccc(F)cc2)n1` [Example 262, 1-{4-[6-(2-chlorophenyl)furo[2,3-d]pyrimidin-4-yl]-3-(4-fluorophenyl)-1H-pyrazol-1-yl}-2-methylpropan-2-ol], the pIC50 with Ba/F3_EGFR WT cells (setting [2]) was 5.39; in the assay on BaF3_EGFR d19/CS cells (setting [3]), 7.33; in assay [1], 9.40; in the assay with BaF3_EGFR LR/CS cells (setting [4]), 7.11.

For the compound `Cn1cnc(-c2cc3c(-c4cn(CCC(F)F)nc4-c4ccc(F)cc4)ncnc3o2)c1` [Example 263, 4-[1-(3,3-difluoropropyl)-3-(4-fluorophenyl)-1H-pyrazol-4-yl]-6-(1-methyl-1H-imidazol-4-yl)furo[2,3-d]pyrimidine], the pIC50 was 6.63 with Ba/F3_EGFR WT cells (setting [2]), 8.21 with BaF3_EGFR d19/CS cells (setting [3]), 9.82 in assay [1] and 8.63 with BaF3_EGFR LR/CS cells (setting [4]).
